Experimental data: patent US20160039936A1, “FIBROBLAST GROWTH FACTOR RECEPTOR INHIBITION FOR THE TREATMENT OF DISEASE” (UNIVERSITY OF MIAMI, priority 2011, published 2016)
Entries after “also recorded” stand apart in the source; their conditions may differ.

Experiments:
[1] = system: isolated neonatal rat ventricular cardiac myocytes (NRVM); assay: Surface area (hypertrophy) of isolated NRVM, immunocytochemistry and morphometry (Examples 1-2); type: cell-based; settings: for FGF2-induced increase in cell surface area (hypertrophy) in presence of inhibitor: 48 h FGF2, inhibitor pre-treated 60 min at Table 2 concentration; for FGF23-induced increase in cell surface area (hypertrophy) in presence of inhibitor: 48 h FGF23, inhibitor pre-treated 60 min at Table 2 concentration; for cell surface area: 48 h incubation with the FGF alone
Protocol: NRVM were isolated using a standard isolation system (Worthington Biochemical Corporation) (Toraason et al., Toxicology, 56(1):107-117, 1989). Hearts from 1-2 day old Sprague Dawley rats (Charles River) were harvested, minced in calcium- and magnesium-free Hank's Balanced Salt Solution (HBSS), and the tissue digested with 50 μg/ml trypsin at 4° C. for 20-24 hours. Soybean trypsin inhibitor in HBSS was added and the tissue was further digested with collagenase (in Leibovitz L-15 medium) under slow rotation (15 rpm) at 37° C. for 45 minutes. Cells were released by gently triturating the suspension 20 times with a standard 10 ml plastic serological pipette and filtering it twice through a cell strainer (70 μm, BD Falcon). Cells were incubated at room temperature for 20 minutes and spun at 100 g for 5 minutes. The cell pellet was resuspended in plating medium [Dulbecco's Modified Eagle Medium (DMEM; Cellgro) with 17% Media 199 (Invitrogen), 15% fetal bovine serum (FBS; Invitrogen) and 1% penicillin/streptomycin solution (P/S; Invitrogen)]. Cells were counted using a hemocytometer.
Cells were plated on glass and plastic surfaces which were coated with laminin (Invitrogen; 10μg/ml in PBS) at room temperature for 1 hour prior to plating. For immunofluorescence analysis, 1×10^6 cells were seeded per well on glass coverslips in 6-well plates. For protein and RNA isolation, 2×10^6 cells were seeded in 6 cm-culture dishes. Cells were left undisturbed in plating medium at 37° C. for 72 hours and then cultured in maintenance medium (DMEM with 20% Media 199, 1% insulin-transferrin-sodium selenite solution (ITS; Sigma-Aldrich) and 1% P/S) in the presence of 100 μM 5-bromo-2′-deoxyuridine (BrdU; Sigam-Aldrich) to eliminate proliferating non-myocytes resulting in a relatively pure population of isolated cardiac myocytes (Bishopric et al., 1987). After 4 days, isolated cardiac myocytes were cultured in BrdU-containing maintenance medium in the presence of recombinant murine FGF23 (26.1 kDa, 251 amino acids; R&D Systems) or FGF2 (16.2 kDa, 144 amino acids; R&D Systems) for 48 hours.
We analyzed isolated NRVM on laminin-coated glass coverslips by immunocytochemsitry according to our established protocols (Faul et al., Cell Biol., 169(3):415-424, 2005; Faul et al., Cell Biol., 27(23):8215-8227, 2007). The mouse monoclonal antibody against sarcomeric α-actinin (EA-53; Sigma-Aldrich) was used at 1:1000 and Cy3-conjugated goat-anti mouse (Jackson Immuno Research) as secondary antibody at 1:750. To visualize nuclei, fixed cells were incubated with 4′,6-diamidino-2-phenylindole (DAPI; 400 ng/ml in PBS) for 5 minutes. Immunofluorescence images were taken on a Leica TCS-SP5 confocal microscope with a 63× oil objective with a 1.6× zoom. Leica AF6000 fluorescence software was used to measure the cell surface area based on α-actinin-positive staining.
To assess the signaling pathways involved in FGF23- and FGF2-mediated hypertrophy, we analyzed the morphometry of plated cells that were pre-treated with specific inhibitors for 60 minutes prior to the addition of the FGFs at varying concentrations.

[2] = system: C57BL/6 mice; assay: Intravenous injection of FGFs (with or without Fc-FGFR decoy receptors) in mice; type: in vivo, mouse; settings: 40 μg/kg FGF, ten times over five days
Protocol: Twelve-week old adult C57BL/6 mice underwent tail vein injections using standard protocols as previously described for the systemic delivery of plasmid DNA (Faul et al., 2008). Briefly, mice were placed in a restrainer and 40 μg/kg of FGF23 dissolved in 200 μl of PBS were injected into the tail vein of 5 mice twice daily with eight hours in between injections for 5 consecutive days. Four mice underwent the same injection schedule using 200 μl of PBS alone as negative control. On the morning of the 6th day, 16 hours after the final tail vein injections, animals were sacrificed and the hearts were isolated and prepared using the same protocol as described above.
Short-axis cardiac sections were used to quantify myocardial thickness by measuring the distance from the inner to the outer myocardial zone at the mid-chamber zone. […] Since klothro-ablated kl/kl mice display severe growth retardation with small hearts (Kuro-o et al., Nature, 390(6655):45-51, 1997), we also measured relative wall thickness calculated as two times the anterior wall thickness divided by left ventricular internal diameter. Total RNA was isolated from flash frozen hearts using TRIzol (Invitrogen) and RT-PCR analyses were performed as described above.
We measured cross-sectional surface area of cardiac myocytes in paraffin-embedded short-axis sections of the heart. Briefly, 7 μm thick sections were deparaffinized according to our established protocols. To specifically label cardiac myocytes, we used mouse monoclonal MF20 antibody against sarcomeric myosin at 1:200 and Cy5-conjugated donkey-anti mouse (Invitrogen) as secondary antibody at 1:400. To visualize nuclei, fixed tissue was incubated with 4′,6-diamidino-2-phenylindole (DAPI; 400 ng/ml in PBS) for 5 minutes. To visualize cellular borders, fixed tissue was incubated with wheat germ agglutinin (WGA) conjugated to Alexa Fluor 555 (Invitrogen) at 1 mg/ml in PBS containing 10 mM sodium azide. Immunofluorescence images were taken on a Leica TCS-SP5 confocal microscope with a 63× oil objective. Leica AF6000 fluorescence software was used to quantify cross-sectional cell surface area of 25 cells per field at four fields along the mid-chamber free wall based on WGA-positive staining.
Next, we wanted to determine the effectiveness of this FGFR trapping system on FGF-induced LVH in mice. To our knowledge, Fc decoy receptors have not yet been used to study FGFR function in vivo in any biological context, but served as valuable tools to analyze the functions of other receptor tyrosine kinases, like receptors for vascular endothelial growth factor (VEGFR) and their role in tumor growth and metastasis. We used similar Fc-FGFR concentrations as described for Fc-VEGFR in animal models of cancer (Lin J et al., Cancer Res. 2005; 65(15):6901-9).

[3] = system: neonatal mouse ventricular myocytes (NMVM); assay: Hypertrophic growth and β-MHC of isolated NMVM (wild-type or FGFR4−/−); type: cell-based; settings: 48 h
Protocol: NMVM were isolated enzymatically (Kreusser et al., 2014). Briefly, hearts from 1-3 day-old mice were harvested, minced in PBS/glucose and further digested with collagenase type 2 (0.2% w/v) and DNase (0.05% w/v) on a rotary shaker at 37° C. for 11 minutes. Cells were then released from the tissue by triturating the suspension twice with a standard 10 ml plastic serological pipette, transferred to DF10 medium (Dulbecco's Modified Eagle Medium/Ham's Nutrient Mixture F12 adjusted to 17 mM NaHCO2 containing 2 mM L-glutamine, 1% P/S and 10% FBS), and stored on ice. The remaining tissue was further incubated in PBS/glucose/collagenase/DNase solution on a rotary shaker at 37° C. for 11 minutes. The trituration and incubation steps were repeated 5-7 times until the tissue was completely dissolved. Cells were pelleted at 300 g for 5 minutes, resuspended in DF20 media (Dulbecco's Modified Eagle Medium/Ham's Nutrient Mixture F12 adjusted to 17 mM NaHCO2 containing 2 mM L-glutamine, 1% P/S and 20% FBS), and preplated for 1 hour to eliminate fibroblasts. Remaining cells were counted using a hemocytometer and plated on glass and plastic surfaces, which were coated with laminin (Sigma-Aldrich; 10 μg/ml in PBS) at room temperature for 1 hour prior to plating. For immunofluorescence analysis, 3×10^5 cells were seeded per well on glass coverslips in 24-well plates. For Western blot analyses of total protein extracts, 5×10^6 cells were seeded in 10 cm-culture dishes. Cells were left undisturbed in DF20 medium at 37° C. for 72 hours, starved overnight with DF medium (Dulbecco's Modified Eagle Medium/Ham's Nutrient Mixture F12 adjusted to 17 mM NaHCO2 containing 2 mM L-glutamine, 1% P/S), and treated in DF medium with recombinant FGF23, FGF2 (both at 100 ng/ml) or AngII (1 μM, Sigma-Aldrich) for 48 hours.
HEK293 cells, NRVM or NMVM were treated with growth factors for 30 minutes to analyze activation of signal transduction mediators, or for 48 hours to analyze expression levels of hypertrophic marker proteins. Cells were scraped from 6-well plates using 500 μl CHAPS extraction buffer (20 mM Tris-HCl pH7.5, 500 mM NaCl, 0.5% CHAPS, protease inhibitor cocktail (Roche), protein phosphatase inhibitors [Sigma-Aldrich]) and incubated on ice for 30 minutes. The cell lysate was centrifuged at 14,000 rpm and 4° C. for 30 minutes, and the supernatant boiled in sample buffer and analyzed by SDS-PAGE and immunoblotting. For protein extraction from mouse hearts, tissue was isolated, minced and homogenized in RIPA extraction buffer (50 mM Tris-HCl pH 7.5, 200 mM NaCl, 1% Triton X-100, 0.25% DOC, 1 mM EDTA, 1 mM EGTA, protease and phosphatase inhibitors) at 1:10 (w:v), and protein lysates were prepared as described above.
Cultured cells were fixed in 2% PFA (in 5 mg/ml sucrose) for 5 minutes and permeabilized in 1% Triton X-100 (in PBS) for 10 minutes. We analyzed hypertrophic growth of isolated NRVM and NMVM on laminin-coated glass coverslips after 48 hours of treatment with growth factors. For FGFR4 expression and localization analyses, untreated NMVM from wild-type and FGFR4^−/− mice were immunolabeled. The mouse monoclonal antibody against sarcomeric α-actinin (EA-53; Sigma-Aldrich) was used at 1:1,000, and rabbit polyclonal anti-FGFR4 (C-16; Santa Cruz) at 1:50. Cy3-conjugated goat-anti mouse and Alexa488-conjugated goat-anti rabbit (Jackson Immuno Research) were used as secondary antibodies at 1:300. To visualize nuclei, fixed cells were incubated with 4′,6-diamidino-2-phenylindole (DAPI; 400 ng/ml in PBS) for 10 minutes. Immunofluorescence images were taken on a Leica TCS-SP5 confocal microscope with a 63× oil objective.
Myocyte cross-sectional area was measured based on α-actinin-positive staining using Leica AF6000 fluorescence software. […]

COc1cccc(-c2cc(=O)c3ccccc3o2)c1N [PD98059] was tested. Which “FGF2-induced increase in cell surface area (hypertrophy) in presence of inhibitor” value (“FGF2-induced increase … of inhibitor” for short) [1] did it give?
The value was “completely prevented”.

What about the “FGF23-induced increase in cell surface area (hypertrophy) in presence of inhibitor” value (“FGF23-induced increase … of inhibitor” for short) [1] of the same molecule?
Its value is “only partially diminished”.

Which “FGF2-induced increase … of inhibitor” value [1] does the source give for COc1ccc2c(c1)CC[C@@H]1[C@@H]2CC[C@]2(C)[C@@H](NCCCCCCN3C(=O)C=CC3=O)CC[C@@H]12 [U73122] here?
The value was “had no effect”.

What about the “FGF23-induced increase … of inhibitor” value [1] of the same molecule?
Its value is “attenuated”.

N#CC(=C(/N)Sc1ccccc1N)/C(C#N)=C(\N)Sc1ccccc1N [U0126] was tested. Which “FGF2-induced increase … of inhibitor” value [1] did it give?
The value was “completely prevented”.

And the “FGF23-induced increase … of inhibitor” value [1]?
Its value is “only partially diminished”.

Which results are given for “FGF19: endocrine fibroblast growth factor 19”?
induction of LVH [2]: significant induction of LVH; cell surface area [1]: significant dose-dependent increase

For FGF4, which cell surface area [1] is on record?
The cell surface area was “no change in size; also recorded: did not induce a hypertrophic response”.

For O=c1[nH]c2ccccc2n1C1CCN(Cc2ccc(-c3nc4cc5nc[nH]c5cc4nc3-c3ccccc3)cc2)CC1 [A6730], which “FGF2-induced increase … of inhibitor” value [1] is on record?
The value was “partially attenuated”.

What about the “FGF23-induced increase … of inhibitor” value [1] of the same molecule?
The value was “did not significantly alter”.

With “angiotensin (Ang) II [AngII, pro-hypertrophic angiotensin II (Sigma-Aldrich), reference compound]” as the molecule, how does the “expression of β-MHC protein in FGFR4−/− NMVM” value ([3]; immunoblot) read?
The value was “induced this effect”.

And the “expression of β-MHC protein in wild-type NMVM” value ([3]; immunoblot)?
Its value is “increased expression”.

What about the “cross-sectional area (size) of NMVM from FGFR4−/− mice” value ([3]; FGF 100 ng/ml, AngII 1 μM) of the same molecule?
Its value is “increase the size”.

And the “cross-sectional area of wild-type NMVM” value ([3]; FGF 100 ng/ml, AngII 1 μM)?
The value was “significant increases”.

B1: FGF21: endocrine fibroblast growth factor 21 (protein, UniProt Q9NSA1 29-209, looked up)
Fibroblast growth factor 21: HPIPDSSPLLQFGGQVRQRYLYTDDAQQTEAHLEIREDGTVGGAADQSPESLLQLKALKPGVIQILGVKTSRFLCQRPDGALYGSLHFDPEACSFRELLLEDGYNVYQSEAHGLPLHLPGNKSPHRDPAPRGPARFLPLPGLPPALPEPPGILAPQPPDVGSSDPLSMVGPSQGRSPSYAS
With B1 as the molecule, how does the “induction of LVH” value [2] read?
The value was “significant induction of LVH”.

What about the cell surface area [1] of the same molecule?
Its cell surface area is “significant dose-dependent increase”.
